According to patent US8916702B2 (priority 2012, dated 2014):

System: HCV pseudoparticles (genotype 1a HCV E1 and E2 envelope, H77C isolate)
Test: microbe, parasite or virus in culture
Assay type: cell-based
Conditions: Hepatitis C virus, Huh-7, 48 h, HCV pseudoparticle infection of Huh7 cells, luciferase 2 days after infection; average of duplicates

| Compound | EC50 [nM] |
| --- | --- |
| COC(=O)[C@H](CNC(=O)C(=O)NC1(CC(C)C)CC1)NC(=O)c1ccc(Nc2nc(NC3(c4ccc(Cl)cc4)CC3)nc(OCC(F)(F)F)n2)cc1 [Compound 1058] | 1.15 |
| COC(=O)[C@H](CNC(=O)C(=O)NC1CCCCC1C)NC(=O)c1ccc(Nc2nc(NC3(c4ccc(Cl)cc4)CC3)nc(OCC(F)(F)F)n2)cc1 (stereo partly shown) [Compound 1061] | 1.58 |
| COC(=O)[C@H](CNC(=O)C(=O)NC1CCC(C)CC1)NC(=O)c1ccc(Nc2nc(NC3(c4ccc(Cl)cc4)CC3)nc(OCC(F)(F)F)n2)cc1 (stereo partly shown) [Compound 1064] | 1.89 |
| CCC1CCC(NC(=O)C(=O)NC[C@H](NC(=O)c2ccc(Nc3nc(NC4(c5ccc(Cl)cc5)CC4)nc(OCC(F)(F)F)n3)cc2)C(=O)OC)CC1 (stereo partly shown) [Compound 1065] | 0.59 |
| O=C(NC[C@H](NC(=O)c1ccc(Nc2nc(NC3(c4ccc(Cl)cc4)CC3)nc(OCC(F)(F)F)n2)cc1)C(=O)O)C(=O)NC1CCC(O)CC1 (stereo partly shown) [Compound 1078] | 11.9 |
| CC(C)(C)OC(=O)NC1CCCC(NC(=O)C(=O)NC[C@H](NC(=O)c2ccc(Nc3nc(NC4(c5ccc(Cl)cc5)CC4)nc(OCC(F)(F)F)n3)cc2)C(=O)O)C1 (stereo partly shown) [Compound 1083] | 1.78 |
| C[C@]12C3C1[C@H]3C[C@H]2NC(=O)C(=O)NC[C@H](NC(=O)c1ccc(Nc2nc(NC3(c4ccc(Cl)cc4)CC3)nc(OCC(F)(F)F)n2)cc1)C(=O)O (stereo partly shown) [Compound 1084] | 0.26 |

Same assay, conditions: Hepatitis C virus, Huh-7, 48 h, read-out: Activity (EC50 class), HCV pseudoparticle infection of Huh7 cells, luciferase 2 days after infection; EC50 expressed as class A/B

| Compound | EC50 [nM] |
| --- | --- |
| COC(=O)[C@H](CNC(=O)C(=O)NC1CCC(F)(F)CC1)NC(=O)c1ccc(Nc2nc(NC3(c4ccc(Cl)cc4)CC3)nc(OCC(F)(F)F)n2)cc1 [Compound 1057] | 0.01 to 10 |
| COC(=O)[C@H](CNC(=O)C(=O)NC1(CC(C)C)CC1)NC(=O)c1ccc(Nc2nc(NC3(c4ccc(Cl)cc4)CC3)nc(OCC(F)(F)F)n2)cc1 [Compound 1058] | 0.01 to 10 |
| COC(=O)[C@H](CNC(=O)C(=O)NC1CCCC(C)C1)NC(=O)c1ccc(Nc2nc(NC3(c4ccc(Cl)cc4)CC3)nc(OCC(F)(F)F)n2)cc1 (stereo partly shown) [Compound 1059] | 0.01 to 10 |
| COC(=O)[C@H](CNC(=O)C(=O)NC1CC(C)CC(C)(C)C1)NC(=O)c1ccc(Nc2nc(NC3(c4ccc(Cl)cc4)CC3)nc(OCC(F)(F)F)n2)cc1 (stereo partly shown) [Compound 1060] | 0.01 to 10 |
| COC(=O)[C@H](CNC(=O)C(=O)NC1CCCCC1C)NC(=O)c1ccc(Nc2nc(NC3(c4ccc(Cl)cc4)CC3)nc(OCC(F)(F)F)n2)cc1 (stereo partly shown) [Compound 1061] | 0.01 to 10 |
| COC(=O)[C@H](CNC(=O)C(=O)NC1CCC(C(C)(C)C)CC1)NC(=O)c1ccc(Nc2nc(NC3(c4ccc(Cl)cc4)CC3)nc(OCC(F)(F)F)n2)cc1 (stereo partly shown) [Compound 1062] | 0.01 to 10 |
| CCC(CC)NC(=O)C(=O)NC[C@@H](NC(=O)c1ccc(Nc2nc(NC3(c4ccc(Cl)cc4)CC3)nc(OCC(F)(F)F)n2)cc1)C(=O)OC [Compound 1063] | 0.01 to 10 |
| COC(=O)[C@H](CNC(=O)C(=O)NC1CCC(C)CC1)NC(=O)c1ccc(Nc2nc(NC3(c4ccc(Cl)cc4)CC3)nc(OCC(F)(F)F)n2)cc1 (stereo partly shown) [Compound 1064] | 0.01 to 10 |
| CCC1CCC(NC(=O)C(=O)NC[C@H](NC(=O)c2ccc(Nc3nc(NC4(c5ccc(Cl)cc5)CC4)nc(OCC(F)(F)F)n3)cc2)C(=O)OC)CC1 (stereo partly shown) [Compound 1065] | 0.01 to 10 |
| COC(=O)[C@H](CNC(=O)C(=O)N[C@H]1C[C@@H]2C[C@@H]([C@@H]1C)C2(C)C)NC(=O)c1ccc(Nc2nc(NC3(c4ccc(Cl)cc4)CC3)nc(OCC(F)(F)F)n2)cc1 [Compound 1066] | 0.01 to 10 |
| COC(=O)[C@H](CNC(=O)C(=O)N[C@H]1C[C@H](C)CC[C@H]1C(C)C)NC(=O)c1ccc(Nc2nc(NC3(c4ccc(Cl)cc4)CC3)nc(OCC(F)(F)F)n2)cc1 [Compound 1067] | 0.01 to 10 |
| COC(=O)[C@H](CNC(=O)C(=O)NC1CCCCCCC1)NC(=O)c1ccc(Nc2nc(NC3(c4ccc(Cl)cc4)CC3)nc(OCC(F)(F)F)n2)cc1 [Compound 1068] | 0.01 to 10 |
| COC(=O)[C@H](CNC(=O)C(=O)N[C@@H]1C[C@H]2C[C@@H]([C@H]1C)C2(C)C)NC(=O)c1ccc(Nc2nc(NC3(c4ccc(Cl)cc4)CC3)nc(OCC(F)(F)F)n2)cc1 [Compound 1069] | 0.01 to 10 |
| COC(=O)[C@H](CCNC(=O)C(=O)NC1CCCC(O)C1)NC(=O)c1ccc(Nc2nc(NC3(c4ccc(Cl)cc4)CC3)nc(OCC(F)(F)F)n2)cc1 (stereo partly shown) [Compound 1070] | 0.01 to 10 |
| COC(=O)[C@H](CCNC(=O)C(=O)NC1CC(C)(C)CC(C)(C)C1)NC(=O)c1ccc(Nc2nc(NC3(c4ccc(Cl)cc4)CC3)nc(OCC(F)(F)F)n2)cc1 [Compound 1071] | 0.01 to 10 |
| COC(=O)[C@H](CCNC(=O)C(=O)NC1CCNC(=O)C1)NC(=O)c1ccc(Nc2nc(NC3(c4ccc(Cl)cc4)CC3)nc(OCC(F)(F)F)n2)cc1 (stereo partly shown) [Compound 1072] | 0.01 to 10 |
| COC(=O)[C@H](CCNC(=O)C(=O)NC1CCC(O)CC1)NC(=O)c1ccc(Nc2nc(NC3(c4ccc(Cl)cc4)CC3)nc(OCC(F)(F)F)n2)cc1 (stereo partly shown) [Compound 1073] | 0.01 to 10 |
| COC(=O)[C@H](CCNC(=O)C(=O)N[C@H]1C[C@H]2C[C@@H]([C@H]1C)C2(C)C)NC(=O)c1ccc(Nc2nc(NC3(c4ccc(Cl)cc4)CC3)nc(OCC(F)(F)F)n2)cc1 [Compound 1074] | 0.01 to 10 |
| COC(=O)[C@H](CCNC(=O)C(=O)NC1CCCCC1C)NC(=O)c1ccc(Nc2nc(NC3(c4ccc(Cl)cc4)CC3)nc(OCC(F)(F)F)n2)cc1 (stereo partly shown) [Compound 1075] | 0.01 to 10 |
| COC(=O)[C@H](CCNC(=O)C(=O)NC1CCCC(C)C1)NC(=O)c1ccc(Nc2nc(NC3(c4ccc(Cl)cc4)CC3)nc(OCC(F)(F)F)n2)cc1 (stereo partly shown) [Compound 1076] | 0.01 to 10 |
| CC1(C)CC(NC(=O)C(=O)NC[C@H](NC(=O)c2ccc(Nc3nc(NC4(c5ccc(Cl)cc5)CC4)nc(OCC(F)(F)F)n3)cc2)C(=O)O)CC(C)(C)C1 [Compound 1077] | 0.01 to 10 |
| O=C(NC[C@H](NC(=O)c1ccc(Nc2nc(NC3(c4ccc(Cl)cc4)CC3)nc(OCC(F)(F)F)n2)cc1)C(=O)O)C(=O)NC1CCC(O)CC1 (stereo partly shown) [Compound 1078] | 10 to 1000 |
| CC(C)(C)OC(=O)N1CCC(NC(=O)C(=O)NC[C@H](NC(=O)c2ccc(Nc3nc(NC4(c5ccc(Cl)cc5)CC4)nc(OCC(F)(F)F)n3)cc2)C(=O)O)CC1 [Compound 1079] | 0.01 to 10 |
| O=C(NC[C@H](NC(=O)c1ccc(Nc2nc(NC3(c4ccc(Cl)cc4)CC3)nc(OCC(F)(F)F)n2)cc1)C(=O)O)C(=O)N[C@@H]1C[C@@H]2CC[C@H]1C2 [Compound 1080] | 0.01 to 10 |

| Compound | EC50 [nM] |
| --- | --- |
| O=C(NC[C@H](NC(=O)c1ccc(Nc2nc(NC3(c4ccc(Cl)cc4)CC3)nc(OCC(F)(F)F)n2)cc1)C(=O)O)C(=O)NC1CCCCC1O (stereo partly shown) [Compound 1081] | 0.01 to 10 |
| O=C1CC(NC(=O)C(=O)NC[C@H](NC(=O)c2ccc(Nc3nc(NC4(c5ccc(Cl)cc5)CC4)nc(OCC(F)(F)F)n3)cc2)C(=O)O)CCN1 (stereo partly shown) [Compound 1082] | 0.01 to 10 |
| CC(C)(C)OC(=O)NC1CCCC(NC(=O)C(=O)NC[C@H](NC(=O)c2ccc(Nc3nc(NC4(c5ccc(Cl)cc5)CC4)nc(OCC(F)(F)F)n3)cc2)C(=O)O)C1 (stereo partly shown) [Compound 1083] | 0.01 to 10 |
| C[C@]12C3C1[C@H]3C[C@H]2NC(=O)C(=O)NC[C@H](NC(=O)c1ccc(Nc2nc(NC3(c4ccc(Cl)cc4)CC3)nc(OCC(F)(F)F)n2)cc1)C(=O)O (stereo partly shown) [Compound 1084] | 0.01 to 10 |
| CC(C)(C)OC(=O)NC1CCC(NC(=O)C(=O)NC[C@H](NC(=O)c2ccc(Nc3nc(NC4(c5ccc(Cl)cc5)CC4)nc(OCC(F)(F)F)n3)cc2)C(=O)O)CC1 (stereo partly shown) [Compound 1085] | 0.01 to 10 |
| O=C(NC[C@H](NC(=O)c1ccc(Nc2nc(NC3(c4ccc(Cl)cc4)CC3)nc(OCC(F)(F)F)n2)cc1)C(=O)O)C(=O)NC1CCCC(O)C1 (stereo partly shown) [Compound 1086] | 0.01 to 10 |
| CC1CCCC(NC(=O)C(=O)NC[C@H](NC(=O)c2ccc(Nc3nc(NC4(c5ccc(Cl)cc5)CC4)nc(OCC(F)(F)F)n3)cc2)C(=O)O)C1 (stereo partly shown) [Compound 1087] | 0.01 to 10 |
| CC1CC(NC(=O)C(=O)NC[C@H](NC(=O)c2ccc(Nc3nc(NC4(c5ccc(Cl)cc5)CC4)nc(OCC(F)(F)F)n3)cc2)C(=O)O)CC(C)(C)C1 (stereo partly shown) [Compound 1088] | 0.01 to 10 |
| CC1CCCCC1NC(=O)C(=O)NC[C@H](NC(=O)c1ccc(Nc2nc(NC3(c4ccc(Cl)cc4)CC3)nc(OCC(F)(F)F)n2)cc1)C(=O)O (stereo partly shown) [Compound 1089] | 0.01 to 10 |
| CC(C)(C)C1CCC(NC(=O)C(=O)NC[C@H](NC(=O)c2ccc(Nc3nc(NC4(c5ccc(Cl)cc5)CC4)nc(OCC(F)(F)F)n3)cc2)C(=O)O)CC1 (stereo partly shown) [Compound 1090] | 0.01 to 10 |
| CCC(CC)NC(=O)C(=O)NC[C@H](NC(=O)c1ccc(Nc2nc(NC3(c4ccc(Cl)cc4)CC3)nc(OCC(F)(F)F)n2)cc1)C(=O)O [Compound 1091] | 0.01 to 10 |
| CC1CCC(NC(=O)C(=O)NC[C@H](NC(=O)c2ccc(Nc3nc(NC4(c5ccc(Cl)cc5)CC4)nc(OCC(F)(F)F)n3)cc2)C(=O)O)CC1 (stereo partly shown) [Compound 1092] | 0.01 to 10 |
| CCC1CCC(NC(=O)C(=O)NC[C@H](NC(=O)c2ccc(Nc3nc(NC4(c5ccc(Cl)cc5)CC4)nc(OCC(F)(F)F)n3)cc2)C(=O)O)CC1 (stereo partly shown) [Compound 1093] | 0.01 to 10 |
| C[C@H]1[C@@H](NC(=O)C(=O)NC[C@H](NC(=O)c2ccc(Nc3nc(NC4(c5ccc(Cl)cc5)CC4)nc(OCC(F)(F)F)n3)cc2)C(=O)O)C[C@H]2C[C@@H]1C2(C)C [Compound 1094] | 0.01 to 10 |
| CC(C)[C@@H]1CC[C@@H](C)C[C@H]1NC(=O)C(=O)NC[C@H](NC(=O)c1ccc(Nc2nc(NC3(c4ccc(Cl)cc4)CC3)nc(OCC(F)(F)F)n2)cc1)C(=O)O [Compound 1095] | 0.01 to 10 |
| O=C(NC[C@H](NC(=O)c1ccc(Nc2nc(NC3(c4ccc(Cl)cc4)CC3)nc(OCC(F)(F)F)n2)cc1)C(=O)O)C(=O)NC1CCCCCCC1 [Compound 1096] | 0.01 to 10 |
| COC(=O)[C@H](CCNC(=O)C(=O)NC1CCCC(NC(=O)OC(C)(C)C)C1)NC(=O)c1ccc(Nc2nc(NC3(c4ccc(Cl)cc4)CC3)nc(OCC(F)(F)F)n2)cc1 (stereo partly shown) [Compound 1097] | 0.01 to 10 |
| COC(=O)[C@H](CCNC(=O)C(=O)NC1CCCCC1O)NC(=O)c1ccc(Nc2nc(NC3(c4ccc(Cl)cc4)CC3)nc(OCC(F)(F)F)n2)cc1 (stereo partly shown) [Compound 1098] | 0.01 to 10 |
| COC(=O)[C@H](CCNC(=O)C(=O)NC1CCC(F)(F)CC1)NC(=O)c1ccc(Nc2nc(NC3(c4ccc(Cl)cc4)CC3)nc(OCC(F)(F)F)n2)cc1 [Compound 1099] | 0.01 to 10 |
| COC(=O)[C@H](CCNC(=O)C(=O)N[C@H]1C[C@H]2C3C2[C@]31C)NC(=O)c1ccc(Nc2nc(NC3(c4ccc(Cl)cc4)CC3)nc(OCC(F)(F)F)n2)cc1 (stereo partly shown) [Compound 1100] | 0.01 to 10 |
| COC(=O)[C@H](CCNC(=O)C(=O)NC1CCN(C(=O)OC(C)(C)C)CC1)NC(=O)c1ccc(Nc2nc(NC3(c4ccc(Cl)cc4)CC3)nc(OCC(F)(F)F)n2)cc1 [Compound 1101] | 0.01 to 10 |
| COC(=O)[C@H](CCNC(=O)C(=O)N[C@@H]1C[C@@H]2CC[C@H]1C2)NC(=O)c1ccc(Nc2nc(NC3(c4ccc(Cl)cc4)CC3)nc(OCC(F)(F)F)n2)cc1 [Compound 1102] | 0.01 to 10 |
| CCC1CCC(NC(=O)C(=O)NCC[C@H](NC(=O)c2ccc(Nc3nc(NC4(c5ccc(Cl)cc5)CC4)nc(OCC(F)(F)F)n3)cc2)C(=O)OC)CC1 (stereo partly shown) [Compound 1103] | 0.01 to 10 |
| COC(=O)[C@H](CCNC(=O)C(=O)NC1CCCCCCC1)NC(=O)c1ccc(Nc2nc(NC3(c4ccc(Cl)cc4)CC3)nc(OCC(F)(F)F)n2)cc1 [Compound 1104] | 0.01 to 10 |
